According to publication PMC10175918 (Communications Biology, 2023):
Where two headings read alike, the source gives them in different places.

Columns and labels:
Test in all cases: TGFα-shedding assay-based GPCR screening with chimeric Gα subunit proteins
Type in all cases: cell-based
[1] = molecular target: T1, 348 GPCRs (Homo sapiens, UniProt Q8IZF2)
T1 construct: expressed in transfected cells; host or cells: HEK293A
T1 sequence (Q8IZF2 22-1346): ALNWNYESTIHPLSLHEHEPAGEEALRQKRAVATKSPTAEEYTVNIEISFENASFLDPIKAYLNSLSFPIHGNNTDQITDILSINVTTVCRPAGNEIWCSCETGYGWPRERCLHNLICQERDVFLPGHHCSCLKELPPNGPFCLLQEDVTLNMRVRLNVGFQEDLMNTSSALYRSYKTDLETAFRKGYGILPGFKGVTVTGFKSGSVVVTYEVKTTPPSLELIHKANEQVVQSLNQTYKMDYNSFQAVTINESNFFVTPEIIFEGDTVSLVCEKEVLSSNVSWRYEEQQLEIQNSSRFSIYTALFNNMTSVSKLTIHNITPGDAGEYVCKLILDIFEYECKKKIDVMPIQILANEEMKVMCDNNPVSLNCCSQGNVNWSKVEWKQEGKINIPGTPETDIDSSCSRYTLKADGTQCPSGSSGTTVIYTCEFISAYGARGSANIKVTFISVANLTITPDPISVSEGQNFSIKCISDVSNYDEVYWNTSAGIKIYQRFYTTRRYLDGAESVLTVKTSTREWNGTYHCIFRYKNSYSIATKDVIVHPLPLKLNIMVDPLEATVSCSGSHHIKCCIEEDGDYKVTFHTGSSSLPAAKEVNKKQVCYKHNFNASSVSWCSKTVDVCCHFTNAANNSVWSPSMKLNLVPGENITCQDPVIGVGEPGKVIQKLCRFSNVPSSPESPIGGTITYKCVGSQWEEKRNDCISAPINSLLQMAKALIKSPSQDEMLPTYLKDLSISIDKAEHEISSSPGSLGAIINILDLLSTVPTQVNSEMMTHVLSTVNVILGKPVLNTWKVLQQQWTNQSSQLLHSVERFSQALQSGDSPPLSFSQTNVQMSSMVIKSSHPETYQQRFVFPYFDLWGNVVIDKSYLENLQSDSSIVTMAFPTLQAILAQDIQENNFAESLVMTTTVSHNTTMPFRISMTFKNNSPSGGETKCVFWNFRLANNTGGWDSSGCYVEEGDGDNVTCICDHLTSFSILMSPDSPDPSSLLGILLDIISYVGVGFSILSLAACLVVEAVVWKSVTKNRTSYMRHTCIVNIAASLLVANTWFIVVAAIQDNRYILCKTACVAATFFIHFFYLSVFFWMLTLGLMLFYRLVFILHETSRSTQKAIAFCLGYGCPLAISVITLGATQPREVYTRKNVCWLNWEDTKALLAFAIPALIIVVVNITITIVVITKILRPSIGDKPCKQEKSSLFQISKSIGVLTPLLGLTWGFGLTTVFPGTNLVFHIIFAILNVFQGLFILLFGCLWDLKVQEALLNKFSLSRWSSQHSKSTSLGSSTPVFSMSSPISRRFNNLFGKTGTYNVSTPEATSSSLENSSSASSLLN

[2] = molecular target: T2, 348 GPCRs (Homo sapiens, UniProt Q9NYM4); conditions: 10µM, Favipiravir 100μM
T2 construct: expressed in transfected cells; host or cells: HEK293A
T2 sequence (Q9NYM4 17-423): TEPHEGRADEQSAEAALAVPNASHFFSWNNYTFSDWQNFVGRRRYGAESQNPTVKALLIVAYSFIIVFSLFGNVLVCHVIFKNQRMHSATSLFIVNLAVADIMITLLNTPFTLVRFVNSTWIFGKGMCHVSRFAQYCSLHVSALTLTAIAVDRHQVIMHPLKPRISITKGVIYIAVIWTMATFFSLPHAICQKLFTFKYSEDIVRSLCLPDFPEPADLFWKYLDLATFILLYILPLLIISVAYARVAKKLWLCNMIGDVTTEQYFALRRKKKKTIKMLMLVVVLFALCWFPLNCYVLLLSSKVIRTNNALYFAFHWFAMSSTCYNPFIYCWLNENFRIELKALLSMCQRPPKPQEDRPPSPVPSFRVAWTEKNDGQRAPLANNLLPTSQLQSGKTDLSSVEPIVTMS

[3] = molecular target: T3, 348 GPCRs (Homo sapiens, UniProt P46091)
T3 construct: expressed in transfected cells; host or cells: HEK293A
T3 sequence (P46091 1-355): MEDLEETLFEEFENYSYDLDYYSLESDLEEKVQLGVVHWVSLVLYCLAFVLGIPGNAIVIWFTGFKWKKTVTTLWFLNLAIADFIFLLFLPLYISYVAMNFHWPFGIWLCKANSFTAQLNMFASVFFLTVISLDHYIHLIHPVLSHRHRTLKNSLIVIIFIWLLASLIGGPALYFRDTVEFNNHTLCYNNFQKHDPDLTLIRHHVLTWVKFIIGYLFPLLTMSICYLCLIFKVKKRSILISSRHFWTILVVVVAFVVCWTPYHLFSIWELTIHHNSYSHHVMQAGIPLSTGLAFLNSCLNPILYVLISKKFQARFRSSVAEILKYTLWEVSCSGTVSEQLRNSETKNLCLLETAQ

[4] = molecular target: T4, 348 GPCRs (Homo sapiens, UniProt P48546); conditions: 10µM, Favipiravir 100μM
T4 sequence (P48546 22-466): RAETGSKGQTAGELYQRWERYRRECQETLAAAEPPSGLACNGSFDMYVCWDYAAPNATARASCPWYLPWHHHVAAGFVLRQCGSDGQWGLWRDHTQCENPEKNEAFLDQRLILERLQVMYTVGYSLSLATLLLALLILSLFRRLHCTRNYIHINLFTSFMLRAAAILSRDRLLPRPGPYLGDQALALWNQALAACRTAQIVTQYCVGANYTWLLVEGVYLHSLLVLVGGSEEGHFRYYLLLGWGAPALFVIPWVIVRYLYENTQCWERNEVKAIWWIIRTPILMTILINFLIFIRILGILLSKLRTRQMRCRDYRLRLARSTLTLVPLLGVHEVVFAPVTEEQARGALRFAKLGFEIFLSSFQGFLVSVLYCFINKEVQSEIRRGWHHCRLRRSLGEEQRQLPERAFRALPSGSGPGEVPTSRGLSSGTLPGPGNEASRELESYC

[5] = molecular target: T5, 348 GPCRs (Homo sapiens, UniProt O00421); conditions: 10µM, Favipiravir 100μM
T5 construct: expressed in transfected cells; host or cells: HEK293A
T5 sequence (O00421 1-344): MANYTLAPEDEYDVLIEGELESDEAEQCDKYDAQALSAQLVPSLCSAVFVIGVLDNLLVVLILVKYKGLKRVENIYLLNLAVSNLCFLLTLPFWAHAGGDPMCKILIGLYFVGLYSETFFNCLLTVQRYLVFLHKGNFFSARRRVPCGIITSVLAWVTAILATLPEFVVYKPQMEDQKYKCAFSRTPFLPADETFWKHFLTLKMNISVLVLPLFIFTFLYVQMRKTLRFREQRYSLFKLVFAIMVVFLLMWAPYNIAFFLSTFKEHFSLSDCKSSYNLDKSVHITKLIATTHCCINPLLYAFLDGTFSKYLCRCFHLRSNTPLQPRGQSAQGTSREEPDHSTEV

[6] = read-out: % GPCR activation compared to TPA, GPCR GPR116 (G-protein-coupled receptor 116 (ADGRF5))
[7] = read-out: % GPCR activation compared to TPA, GPR83 (G Protein-Coupled Receptor 83)
[8] = read-out: % GPCR activation compared to TPA, GPCR GPR1 (G protein-coupled receptor 1)
[9] = read-out: % GPCR activation compared to TPA, GIPR (gastric inhibitory polypeptide receptor)
[10] = read-out: % GPCR activation compared to TPA, CCRL2 (chemokine (C-C motif) receptor-like 2)
[11] = GPCR GPR116 (G-protein-coupled receptor 116 (ADGRF5)), read-out: % GPCR activation compared to TPA
[12] = GPR83 (G Protein-Coupled Receptor 83), read-out: % GPCR activation compared to TPA
[13] = GPCR GPR1 (G protein-coupled receptor 1), read-out: % GPCR activation compared to TPA
[14] = GIPR (gastric inhibitory polypeptide receptor), read-out: % GPCR activation compared to TPA
[15] = CCRL2 (chemokine (C-C motif) receptor-like 2), read-out: % GPCR activation compared to TPA

Q: Which activation at 10 µM [1, 6] does the source give for `CC(C)OC(=O)[C@H](C)N[P@](=O)(OC[C@H]1O[C@@H](n2ccc(=O)[nH]c2=O)[C@](C)(F)[C@@H]1O)Oc1ccccc1` [sofosbuvir] here?
A: Its activation at 10 µM is -0.621%.

Q: What about the activation at 100 µM [2, 7] of the same compound?
A: Its activation at 100 µM is -0.627%.

Q: And the activation at 10 µM [3, 8]?
A: The activation at 10 µM was -2.4%.

Q: What about the activation at 10 µM [4, 9] of the same compound?
A: Its activation at 10 µM is -0.359%.

Q: And the activation at 10 µM [5, 10]?
A: The activation at 10 µM was 1.66%.

Q: How did the activation at 10 µM [1, 11] turn out when `CC(C)C(=O)OC[C@H]1O[C@@H](n2ccc(NO)nc2=O)[C@H](O)[C@@H]1O` [molnupiravir] was run?
A: Its activation at 10 µM is -2.23%.

Q: What about the activation at 100 µM [2, 12] of the same compound?
A: The activation at 100 µM was -2.02%.

Q: And the activation at 10 µM [3, 13]?
A: Its activation at 10 µM is -1.07%.

Q: What about the activation at 10 µM [4, 14] of the same compound?
A: Its activation at 10 µM is 1.42%.

Q: What about the activation at 10 µM [5, 15] of the same compound?
A: The activation at 10 µM was -0.522%.

Q: What does the source list for `NC(=O)c1nc(F)cnc1O` [favipiravir, 6-fluoro-3-hydroxy-2-pyrazinecarboxamide]?
A: activation at 100 µM ([1]; GPCR GPR116 (G-protein-coupled receptor 116 (ADGRF5)), 100μM, read-out: % GPCR activation compared to TPA): -1.79%; activation at 100 µM [2, 12]: -2.15%; activation at 100 µM ([3]; GPCR GPR1 (G protein-coupled receptor 1), 100μM, read-out: % GPCR activation compared to TPA): -1.92%; activation at 10 µM [4, 14]: -1.79%; activation at 10 µM [5, 15]: 0.0461%

Q: For `N#C[C@@]1(c2ccc3c(N)ncnn23)O[C@H](CO)[C@@H](O)[C@H]1O` [GS441524], which activation at 10 µM [1, 11] is on record?
A: Its activation at 10 µM is -2.91%.

Q: What about the activation at 100 µM [2, 12] of the same compound?
A: The activation at 100 µM was -1.11%.

Q: What about the activation at 10 µM [3, 13] of the same compound?
A: Its activation at 10 µM is -3.33%.

Q: What about the activation at 10 µM [4, 14] of the same compound?
A: The activation at 10 µM was -3.77%.

Q: What about the activation at 10 µM [5, 15] of the same compound?
A: Its activation at 10 µM is 2.25%.

Q: What does the source list for `CCC(CC)COC(=O)[C@H](C)N[P@](=O)(OC[C@H]1O[C@@](C#N)(c2ccc3c(N)ncnn23)[C@H](O)[C@@H]1O)Oc1ccccc1` [remdesivir]?
A: activation at 10 µM [1, 6]: -2.59%; activation at 100 µM [2, 7]: -2.36%; activation at 10 µM [3, 8]: 2.72%; activation at 10 µM [4, 9]: -2.47%; activation at 10 µM [5, 10]: 0.0536%
